Our source for the IC50 values is patent US5760041A, “4-aminoquinazoline EGFR Inhibitors” (American Cyanamid Company, priority 1997, dated 1998).

Experiment [1] concerns the target T1, Epidermal Growth Factor Receptor Kinase (EGF-R) (Homo sapiens, UniProt P00533).
T1 construct: The enzyme was obtained as a membrane extract of A431 cells; (cells); host or cells: A431 cells (membrane extract)
The experiment is described as follows: Inhibition of Epidermal Growth Factor Receptor Kinase (EGF-R), phosphorylation of peptide substrate RR-SRC. The settings on record: A431 membrane extract; average of number of tests. In kind it is biochemical. As to the method:
The % inhibition of the test compound was determined for at least three different concentrations and the IC50 value was evaluated from the dose response curve.
The CPM values were corrected for the background counts produced by ATP in the absence of the enzymatic reaction.

The test system of experiment [2] is A431 cells. The experiment is described as follows: Inhibition of cell growth, [3H]-thymidine incorporation, A431. The settings on record: Homo sapiens, A-431, read-out: IC50, A431. The class given is cell-based. As to the method: (§1) Representative compounds of this invention were evaluated for their ability to inhibit the growth of the cell lines described below in vitro. The inhibition is quantitated by measuring the decrease in the incorporation of radio-labeled thymidine when the cells are grown in the presence of the inhibitor. A431 and SKBR3 cell lines are obtained from American Type Culture Collection, Rockville, Md. […] NHEK cells are obtained from Clonetics (San Diego, Calif.). Cells were routinely grown in a humidified incubator in 5% CO2 in air.
Cells were seeded at 10,000 cells/well in 96 well plates in complete media and allowed to grow to log phase. […] After overnight incubation in low serum (or EGF lacking) media, the compounds to be evaluated were added and cells remained in the presence of compounds for 48 to 72 hours. […] Cells were lysed in 0.5M NaOH for at least 30 min at 37° C. and radioactivity analyzed.
(§2) The cell growth inhibition data is provided below in TABLE 3. […] The % inhibition of the compound evaluated was determined for at least three different concentrations and the IC50 value evaluated from the dose response curve.
(§3) CPM(control) is in units of counts per minute and is a number expressing the amount of [^3 H]thymidine incorporated onto the DNA when cells are grown in the absence of test compound as measured by liquid scintillation counting.
A general note: Incorporation of labelled thymidine or its analogues reports DNA synthesis.

Experiment [3] has as its system SKBR3 cells. The experiment is described as follows: Inhibition of cell growth, [3H]-thymidine incorporation, SKBR3. In kind it is cell-based. The settings on record: Homo sapiens, SK-BR-3; 48 to 72 hours with compound; read-out: IC50, SKBR3. As to the method:
Representative compounds of this invention were evaluated for their ability to inhibit the growth of the cell lines described below in vitro. The inhibition is quantitated by measuring the decrease in the incorporation of radio-labeled thymidine when the cells are grown in the presence of the inhibitor. A431 and SKBR3 cell lines are obtained from American Type Culture Collection, Rockville, Md. […] NHEK cells are obtained from Clonetics (San Diego, Calif.). Cells were routinely grown in a humidified incubator in 5% CO2 in air. […] Cells were seeded at 10,000 cells/well in 96 well plates in complete media and allowed to grow to log phase. […] After overnight incubation in low serum (or EGF lacking) media, the compounds to be evaluated were added and cells remained in the presence of compounds for 48 to 72 hours. Media with test compound was then removed and complete media was added back. The cells were allowed to grow for 18 hours. This is followed by incubation in [^3 H]thymidine (1mCi/ml in serum/EGF media) for 4 hours. Cells were lysed in 0.5M NaOH for at least 30 min at 37° C. and radioactivity analyzed. The cell growth inhibition data is provided below in TABLE 3. […] The % inhibition of the compound evaluated was determined for at least three different concentrations and the IC50 value evaluated from the dose response curve. […] CPM(control) is in units of counts per minute and is a number expressing the amount of [^3 H]thymidine incorporated onto the DNA when cells are grown in the absence of test compound as measured by liquid scintillation counting.

For experiment [4], the system named is NHEK cells. Nature of the experiment: Inhibition of cell growth, [3H]-thymidine incorporation, NHEK. The class given is cell-based. The settings on record: Homo sapiens, read-out: IC50, NHEK. As to the method: as §1
(§4) Cells were seeded at 10,000 cells/well in 96 well plates in complete media and allowed to grow to log phase. […] After overnight incubation in low serum (or EGF lacking) media, the compounds to be evaluated were added and cells remained in the presence of compounds for 48 to 72 hours. Media with test compound was then removed and complete media was added back. The cells were allowed to grow for 18 hours. This is followed by incubation in [^3 H]thymidine (1mCi/ml in serum/EGF media) for 4 hours. Cells were lysed in 0.5M NaOH for at least 30 min at 37° C. and radioactivity analyzed.
as §2, §3

The test system of experiment [5] is Neu-3T3 cells. Nature of the experiment: Inhibition of cell growth, [3H]-thymidine incorporation, Neu-3T3. In kind it is cell-based. The note with it: Mus musculus; 48 to 72 hours with compound; read-out: IC50, NEU-3T3. As to the method:
as §1, §4, §2, §3

T1 sequence (P00533 25-1210): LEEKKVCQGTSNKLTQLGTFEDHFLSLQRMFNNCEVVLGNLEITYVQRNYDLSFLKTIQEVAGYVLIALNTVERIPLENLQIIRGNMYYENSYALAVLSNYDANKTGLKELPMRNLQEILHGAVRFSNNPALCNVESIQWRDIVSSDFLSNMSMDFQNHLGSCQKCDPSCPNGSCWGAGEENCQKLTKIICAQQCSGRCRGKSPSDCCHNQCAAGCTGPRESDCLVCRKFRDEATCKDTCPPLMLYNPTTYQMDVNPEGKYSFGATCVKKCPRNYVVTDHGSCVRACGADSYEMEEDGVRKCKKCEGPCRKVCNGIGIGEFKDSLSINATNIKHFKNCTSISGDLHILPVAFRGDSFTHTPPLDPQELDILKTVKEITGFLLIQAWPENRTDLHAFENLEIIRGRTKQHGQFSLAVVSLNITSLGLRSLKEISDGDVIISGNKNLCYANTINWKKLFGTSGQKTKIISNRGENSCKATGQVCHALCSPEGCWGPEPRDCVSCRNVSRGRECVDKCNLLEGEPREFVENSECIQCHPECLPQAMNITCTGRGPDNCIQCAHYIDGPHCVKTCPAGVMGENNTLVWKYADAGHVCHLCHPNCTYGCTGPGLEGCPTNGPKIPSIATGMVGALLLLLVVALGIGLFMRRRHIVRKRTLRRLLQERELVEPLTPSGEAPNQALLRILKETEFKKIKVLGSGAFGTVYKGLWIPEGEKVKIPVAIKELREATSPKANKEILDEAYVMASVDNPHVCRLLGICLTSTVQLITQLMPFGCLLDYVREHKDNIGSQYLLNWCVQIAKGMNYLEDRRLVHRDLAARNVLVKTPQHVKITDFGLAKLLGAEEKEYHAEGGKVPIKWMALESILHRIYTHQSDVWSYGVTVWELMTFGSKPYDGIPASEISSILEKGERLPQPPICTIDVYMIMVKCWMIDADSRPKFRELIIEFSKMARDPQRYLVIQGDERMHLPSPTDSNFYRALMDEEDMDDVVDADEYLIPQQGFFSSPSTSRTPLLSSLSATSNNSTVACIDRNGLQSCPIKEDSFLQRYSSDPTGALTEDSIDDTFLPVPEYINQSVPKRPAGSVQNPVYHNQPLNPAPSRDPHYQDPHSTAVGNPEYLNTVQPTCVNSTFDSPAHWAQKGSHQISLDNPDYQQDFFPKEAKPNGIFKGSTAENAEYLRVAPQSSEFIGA
T1 sequence (P01133 971-1023 partner limits assumed): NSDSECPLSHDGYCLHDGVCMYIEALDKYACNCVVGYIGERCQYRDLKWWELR

Take `CC=CC=CC(=O)Nc1ccc2ncnc(Nc3cccc(Br)c3)c2c1` [Example 11, N-[4-[(3-Bromophenyl)amino]-6-quinazolinyl]-2,4-hexadienamide]: the IC50 – broadly, the concentration that inhibits the measured activity by half – in experiment [1] was found to be 56 nM; in experiment [2] it was 800 nM; in experiment [3], 4000 nM; in experiment [4] it was 850 nM; in experiment [5], 400 nM.
